Data reported in publication PMC5514153, “Targeting PTPRZ inhibits stem cell-like properties and tumorigenicity in glioblastoma cells” (Scientific Reports, 2017).

Tested on: human U251 cells
Experiment: Cellular effects in U251 cells
Assay type: cell-based
Settings: proliferation, migration, SOX2 (Supplementary Fig. S4)
Description: This assay was performed as described previously. Briefly, cells were preincubated with compounds for 30 min, and then transferred onto a laminin-coated transwell insert in which the lower chambers contained epidermal growth factor (EGF, #E9644, Sigma-Aldrich). Cells were allowed to migrate for 3 h, and the number of cells that migrated to the lower surface was counted under a conventional fluorescence microscope.
Cells (3 × 10^4 cells) were inoculated into a 24-well plastic tissue culture plate with 500 µl of DMEM supplemented with 2% FBS and the indicated compounds for 48 h. Cells were harvested by trypsinization and then manually counted with a hemacytometer.
Cells were inoculated at 5 × 10^3 cells per 96-well uncoated polystyrene plate (# 9018, Corning) or 5 × 10^4 cells per 35-mm plastic petri dish (#351008, Corning), and cultured in a serum-free medium containing DMEM/F12 with 1x B27 supplement (#17504044, Thermo Fisher Scientific), EGF (20 ng/ml), and basic fibroblast growth factor (bFGF, 20 ng/ml, #064-05381, Wako pure chemical). After a 7-day culture, cells were fixed with 10% neutral formalin and pictured under a conventional microscope. The number of spheroids of approximately 70 µm in diameter were counted manually using Adobe Photoshop CS6 (Adobe).

CCOc1ccc(C(F)(F)F)cc1CSc1ccsc1C(=O)NS(=O)(=O)c1ccccc1 [NAZ2329]
cellular effects in U251 cells compared with C6 cells: exerted similar effects
